Common to all, as to assay: growth of human tumour cells (NCI), 48 h
The test system of assay [1] is PC-3.
Assay [2] deals with SR.
Assay [3] deals with NCI-H522.
The test system of assay [4] is SK-OV-3.
For assay [5], the system named is ACHN.
For assay [6], the system named is RPMI-8226.
The subject of assay [7] is SK-MEL-28.
For assay [8], the system named is M14.
For assay [9], the system named is OVCAR-3.
Assay [10] concerns HT-29.
Assay [11] has as its system SF-539.
Assay [12] has as its system OVCAR-8.
The test system of assay [13] is MCF7.
Assay [14] relates to K562.
The subject of assay [15] is SNB-75.
The test system of assay [16] is LOX IMVI.
The subject of assay [17] is EKVX.
In assay [18] the test system is HCT-15.
For assay [19], the system named is CAKI-1.
The subject of assay [20] is NCI-H460.

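Dose response: 5 concentrations. Exposure: 48 h. Format: 96-well plates. Endpoint: linear interpolation; highest concentration if not reached. Abbreviation: GI50, concentration required for 50% inhibition of growth.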 The source made the active and inactive calls. No stated cut-off is given here; in the data, active = GI50 up to about 1.1 µM and inactive = higher.

On to `C/C=C/[C@@H]1O[C@H](CC#C[Si](C)(C)C)[C@@]2(C=O)C(C)=CC[C@H](C(C)C)[C@@H]12`, for which the GI50 in [1] is 15.4 µM (inactive); in [2], 2.44 µM (inactive); in assay [3], 2.09 µM (inactive); in assay [4] it was 80.4 µM (inactive); in [5] it was 19.2 µM (inactive); in assay [6] it was 5.7 µM (inactive). Moreover, the GI50 in [7] is 20.3 µM (inactive); in assay [8], 18.5 µM (inactive); in assay [9], 18.6 µM (inactive); in assay [10], 19.5 µM (inactive); in [11], 21.6 µM (inactive); in assay [12], 23.4 µM (inactive). In addition, the GI50 in assay [13] was 22.5 µM (inactive); in assay [14], 14.7 µM (inactive); in assay [15], 21.6 µM (inactive); in assay [16], 4.5 µM (inactive); in assay [17] it was 18.8 µM (inactive); in assay [18] it was 21.1 µM. Besides, the figures for the GI50 in assay [19] and in [20] were 1.94 µM (inactive) and 17.1 µM (inactive), respectively.
For `CCN(CC)Cc1cc(/N=N\c2c(O)ccc3c(/N=N\c4ccc(O)c(CN(CC)CC)c4)c(O)ccc23)ccc1O`, the GI50 was 5.11 µM (inactive) in [1]; 0.993 µM (active) in assay [2]; 2.31 µM (inactive) in assay [3]; 2.77 µM (inactive) in assay [4]; 2.49 µM (inactive) in [5]; 1.68 µM (inactive) in assay [6]. Besides, the GI50 was 5.96 µM (inactive) in assay [7]; 5.4 µM (inactive) in assay [8]; 3.73 µM (inactive) in assay [9]; 2.57 µM (inactive) in [10]; 2.73 µM (inactive) in assay [11]; 2.12 µM (inactive) in [12]. The GI50 in assay [13] is 2.39 µM (inactive); in [14], 2.21 µM (inactive); in [15] it was 6.28 µM (inactive); in assay [16], 1.59 µM (inactive); in [17], 4.56 µM (inactive); in assay [18] it was 1.68 µM. Further, the GI50 in assay [19] is 2.1 µM (inactive); in assay [20], 1.91 µM (inactive).
Regarding `CCN(CC)C(=S)N/N=C(/c1ccccc1)c1ccccn1`, the GI50 in assay [1] was 0.212 µM (active); in assay [2], 0.106 µM (active); in assay [3], 0.0984 µM (active); in assay [4] it was 0.673 µM (active); in assay [5] it was 0.264 µM (active); in assay [6] it was 0.11 µM (active). Further, the GI50 in assay [7] is 0.767 µM (active); in assay [8] it was 0.0618 µM (active); in assay [9], 0.0288 µM (active); in assay [10], < 0.0246 µM (active); in assay [11], 0.343 µM (active); in [12], 0.0362 µM (active). For the same molecule, the GI50 is 0.0867 µM (active) in assay [13]; 0.185 µM (active) in assay [14]; 0.875 µM (active) in assay [15]; 0.2 µM (active) in assay [16]; 0.583 µM (active) in assay [17]; 0.126 µM in assay [18]. Further, the GI50 in assay [19] was 0.805 µM (active); in assay [20] it was 0.0783 µM (active).
`CCOC1CCN(C(=O)c2ccccc2)O1` (stereo not given): the GI50 in assay [1], in assay [2], in assay [3], in [4], in [5] and in assay [6] was > 10 µM (inactive) each time. Moreover, the GI50 in assay [7], in assay [8], in assay [9], in assay [10], in assay [11] and in assay [12] was > 10 µM (inactive) in each case. In addition, the GI50 is > 10 µM (inactive) in assay [13]; > 10 µM (inactive) in assay [14]; > 10 µM (inactive) in assay [15]; > 10 µM (inactive) in assay [16]; > 10 µM (inactive) in assay [17]; more than 10 µM in assay [18]. In addition, the GI50 in [19] and in [20] was > 10 µM (inactive) throughout.
On to `Cc1cccc(CP(Cc2cccc(C)c2)CC2(Cp3c4ccccc4c4ccccc43)COC2)c1`, for which the GI50 in assay [1] was 0.935 µM (active); in assay [2] it was 1.15 µM (inactive); in assay [3] it was 1.18 µM (inactive); in [4], > 100 µM (inactive); in assay [5], 4.71 µM (inactive); in assay [6], 1.02 µM (active). In addition, the GI50 in [7] is 13 µM (inactive); in assay [8], 3.97 µM (inactive); in assay [9] it was 8.43 µM (inactive); in assay [10] it was 0.485 µM (active); in [11], 12.1 µM (inactive); in assay [12], 1.78 µM (inactive). The GI50 was 3.15 µM (inactive) in assay [13]; 1.33 µM (inactive) in [14]; 0.501 µM (active) in assay [15]; 1.42 µM (inactive) in assay [16]; 14.1 µM (inactive) in assay [17]; 31 µM in [18]. Besides, the GI50 is 9.75 µM (inactive) in assay [19] and 1.63 µM (inactive) in assay [20].
`O=C(CSc1nc2ccccc2c(=O)n1-c1ccccc1)N/N=C1\C(=O)Nc2ccc(Br)cc21`: the GI50 was 1.84 µM (inactive) in assay [1]; 15.6 µM (inactive) in [2]; 3.4 µM (inactive) in assay [3]; 3.41 µM (inactive) in [4]; 4.57 µM (inactive) in [5]; 2.72 µM (inactive) in assay [6]. Also, the GI50 in [7] is 3.35 µM (inactive); in [8], 2.4 µM (inactive); in assay [9], 3.1 µM (inactive); in assay [10], 1.69 µM (inactive); in assay [11], 2.1 µM (inactive); in assay [12], 1.85 µM (inactive). Further, the GI50 in assay [13] was 3.49 µM (inactive); in assay [14], 3.2 µM (inactive); in [15], 3.01 µM (inactive); in assay [16], 3.33 µM (inactive); in assay [17], 2.74 µM (inactive); in assay [18] it was 4.39 µM. In addition, the GI50 in assay [19] is 2.48 µM (inactive); in [20], 4.92 µM (inactive).
Take `Cc1ccc(NC(=O)c2cccc(OP(=O)(O)Nc3ccc(C)cc3)c2)cc1`: the GI50 in [1] is > 100 µM (inactive); in [2], 32.4 µM (inactive); in assay [3] it was 18.7 µM (inactive); in assay [4], > 100 µM (inactive); in assay [5] it was 57.4 µM (inactive); in [6], > 100 µM (inactive). Besides, the GI50 in assay [7] was > 100 µM (inactive); in assay [8] it was 33.3 µM (inactive); in assay [9] it was > 100 µM (inactive); in assay [10] it was > 100 µM (inactive); in assay [11], > 100 µM (inactive); in assay [12] it was > 100 µM (inactive). Further, the GI50 in assay [13] was > 100 µM (inactive); in assay [14] it was > 100 µM (inactive); in assay [15], 20.2 µM (inactive); in [16], > 100 µM (inactive); in assay [17], > 100 µM (inactive); in [18], more than 100 µM. Also, the GI50 in [19] and in [20] was > 100 µM (inactive) each time.

Values taken from ChEMBL document CHEMBL1201862, “PubChem BioAssay data set” (2004).
